Laboratory results from PMC4235525, “Anticancer Properties of Novel Rhenium Pentylcarbanato Compounds against MDA-MB-468(HTB-132) Triple Node Negative Human Breast Cancer Cell Lines” (British journal of pharmaceutical research, 2015).

What was measured:
[1] = system: MDA-MB-468 (HTB-132) triple node negative breast cancer cell lines; assay: Trypan blue cytotoxicity assay, 48 h treatment; type: cell-based, human; details: drugs in DMSO, read-out: IC-50 (mean ± S.D.), concentration required to have 50% cell-growth inhibition, Breast Cancer HTB-132 cell lines
Method: MDA-MB-468 (HTB-132) triple node negative breast cancer cell lineswere obtained from ATCC (USA), cultured inL-15 medium supplemented with 10% Fetal Bovine Serum(FBS), penicillin and streptomycin antibiotics and grownat 37°C inan incubator. The mouse glomerular mesangialcell line was a kind gift from Dr. C. Reilly of Virginia Tech University, USA. These cells were cultured in RPMI-1640 medium supplemented with 10%FBS, penicillin and streptomycin antibiotics and grown at 37°C in a carbon dioxide incubator.
HTB-132 breast cancer cell lines were grown in six well plates to confluency, the cells were then kept in serum-free medium overnight and then treated with each of drugsPC1-6 (dissolved in DMSO) along with untreated cells and DMSO vehicular control for 48 hours. […] Atrypan blue assay was done to measure cell viability using a standard hemocytometer and light microscope.
Each experiment was repeated three times and statistical t test was used to analyze the results with P<0.05.

[2] = system: Balb/c mouse kidney (mouse glomerular mesangial) cell line; assay: Trypan blue cytotoxicity (nephrotoxicity) in mouse kidney cells; type: cell-based; details: 48 hours, trypan blue assay, drugs in DMSO; read-out: IC-50 (mean ± S.D.), concentration required to have 50% cell-growth inhibition, Mouse Mesangial cell lines
Method: Aim To study the efficacy of novel rhenium compounds to treat triple node negative breast cancer. Place and Duration Six (6) novel rhenium pentycarbanato compounds (PC1-6) were synthesized and triple node negative breast cancer cell lines HTB-132 and Balb/c mouse kidney cell lines were treated with each of them for 48 hours. The results were analyzed by a common trypan blue cell death assay system and statistically analyzed. Place and Duration The compounds were synthesized, analyzed and evaluated at the Department of Chemistryof Morgan State University, Baltimore, Maryland and the Pharmaceutical Sciences Department of Elizabeth City State University campus of the University of North Carolina system. Methodology The novel rhenium compounds were synthesized from one-pot reactions of Re2(CO)10 with the corresponding α-diimine ligands in 1-pentanol.The compounds were characterized spectroscopically. The cell lines were cultured by standard cell culture procedure and treated with each of the six compounds in DMSO for 48 hours with a negative control and a DMSO vehicular control along with a cisplatin positive control.The cytotoxicity was evaluated by standard trypan blue assay and the results were statistically analyzed. […] Conclusion The novel rhenium compounds PC 1-6 can potentially find applications in the treatment of highly malignant triple node negative breast cancer. […]

With cis-[Pt (NH3)2Cl2] [Cisplatin] as the substance, how does the IC50 [1] read?
Its IC50 is 5 ± 2.5 µM.

And the IC50 [2]?
The IC50 was 1000 ± 2500 nM.
